The series in a line: CHI Log D procedure. The format is physicochemical. The settings on record: for CHI Log D: pH 7.4.

Structures are written as SMILES.

The results in this text go back to patent publication US20240116985A1, “STAPLED PEPTIDES AND METHODS THEREOF” (priority 2020, published 2024).

The chromatographic logD is lipophilicity estimated from chromatographic retention. Consider `CC(=O)N1CCC[C@]12CC=CCCCC1(CCCC=CCCCCCC[C@@](C)(C(=O)N[C@@H](Cc3ccccc3)C(=O)N[C@@H](Cc3c[nH]c4ccccc34)C(=O)N[C@@H](CCC(N)=O)C(N)=O)NC(=O)[C@H](C(C)C)NC(=O)[C@H](Cc3ccccc3)NC(=O)[C@H](C)NC(=O)[C@H](C)NC(=O)[C@H](CCC(=O)O)NC(=O)[C@H](CC(=O)O)NC1=O)NC(=O)[C@H](C)NC(=O)[C@H](Cc1c[nH]cn1)NC2=O` (single isomer, unassigned) [I-314, Ac-PL3-His-Ala-B5-Asp-Glu-Ala-Ala-Phe-Val-S8-Phe-Trp-Gln-NH2], for which, under “pH 7.4, CHI Log D”, the chromatographic logD amounted to 2.34.
Still for that read-out and setting: the value for `CC(=O)N1CCC[C@]12CC=CCCCC1(CCCC=CCCCCCC[C@@](C)(C(=O)N[C@@H](Cc3ccccc3)C(=O)N[C@@H](Cc3c[nH]c4ccccc34)C(=O)N[C@@H](CCC(N)=O)C(N)=O)NC(=O)[C@H](C(C)C)NC(=O)[C@H](Cc3c[nH]cn3)NC(=O)[C@H](C)NC(=O)[C@H](C)NC(=O)[C@H](CC(=O)O)NC(=O)[C@H](CC(=O)O)NC1=O)NC(=O)[C@H](C)NC(=O)[C@H](CC(=O)O)NC2=O` (single isomer, unassigned) [I-320, Ac-PL3-Asp-Ala-B5-Asp-Asp-Ala-Ala-His-Val-S8-Phe-Trp-Gln-NH2] was 2.04.
What is called logD is lipophilicity at a set pH, counting ionised and neutral species. Lower therefore signals lower lipophilicity. Consider `CC(=O)N1CCC[C@]12CC=CCCCC1(CCCC=CCCCCCC[C@@](C)(C(=O)N[C@@H](Cc3ccccc3)C(=O)N[C@@H](Cc3c[nH]c4ccccc34)C(=O)N[C@@H](CO)C(N)=O)NC(=O)[C@H](C(C)C)NC(=O)[C@H](Cc3ccccc3)NC(=O)[C@H](C)NC(=O)[C@H](C)NC(=O)[C@H](CC(=O)O)NC(=O)[C@H](CC(=O)O)NC1=O)NC(=O)[C@H](C)NC(=O)[C@H](CC(=O)O)NC2=O` (single isomer, unassigned) [I-334, Ac-PL3-Asp-Ala-B5-Asp-Asp-Ala-Ala-Phe-Val-S8-Phe-WCHO-Ser-NH2], for which the logD (pH 7.4, CHI Log D) amounted to 1.86.
As for `CC(=O)N1CCC[C@]12CC=CCCCC1(CCCC=CCCCCCC[C@@](C)(C(=O)N[C@@H](Cc3ccccc3)C(=O)N[C@@H](Cc3c[nH]c4ccccc34)C(=O)N[C@@H](CO)C(N)=O)NC(=O)[C@H](C(C)C)NC(=O)[C@H](Cc3ccccc3)NC(=O)[C@H](C)NC(=O)[C@H](C)NC(=O)[C@H](CC(=O)O)NC(=O)[C@H](CC(=O)O)NC1=O)NC(=O)[C@H](C)NC(=O)[C@H](CC(=O)O)NC2=O` (single isomer, unassigned) [I-335, Ac-PL3-Asp-Ala-B5-Asp-Asp-Ala-Ala-Phe-Val-S8-Phe-WCHO-Ser-NH2], the “CHI Log D” value was found to be 1.928.
The same measure, in the same setting: the figure for `CC(=O)N[C@@H](Cc1ccccc1)C(=O)N[C@@H](CC(=O)O)C(=O)N[C@@H](C)C(=O)N[C@]1(C)CCCCCCC=CCOC(=O)N2CC[C@@](C(=O)N[C@@H](Cc3ccccc3)C(=O)N[C@@H](Cc3c[nH]c4ccccc34)C(=O)N[C@@H](CCC(N)=O)C(N)=O)(C2)NC(=O)[C@H](C(C)C)NC(=O)[C@H](Cc2ccccc2)NC(=O)[C@H](C)NC(=O)[C@H](C)NC(=O)[C@H](CCC(=O)O)NC(=O)[C@H](CC(=O)O)NC1=O` [I-3, Ac-Phe-Asp-Ala-R8-Asp-Glu-Ala-Ala-Phe-Val-PyrS-Phe-Trp-Gln-NH2] is 1.307.
On the same count and under the same terms, the value for `CC(=O)N[C@@H](Cc1ccccc1)C(=O)N[C@@H](CC(=O)O)C(=O)N[C@@H](C)C(=O)N[C@]1(C)CCCCCCC=CCOC(=O)N2CC[C@@](C(=O)N[C@@H](Cc3ccccc3)C(=O)N[C@@H](Cc3c[nH]c4ccccc34)C(=O)N[C@@H](CCC(N)=O)C(N)=O)(C2)NC(=O)[C@H](C(C)C)NC(=O)[C@H](Cc2ccccc2)NC(=O)[C@H](C)NC(=O)[C@H](C)NC(=O)[C@H](CCC(=O)O)NC(=O)[C@H](CC(=O)O)NC1=O` [I-4, Ac-Phe-Asp-Ala-R8-Asp-Glu-Ala-Ala-Phe-Val-PyrS-Phe-Trp-Gln-NH2] was 1.353.
